In patent US8653092B2, “Tetrahydro-pyrido-pyrimidine derivatives” (Novartis AG, priority 2010, dated 2014):
Where two headings read alike, the source gives them in different places.

Experiments:
PI3K alpha = PI3K alpha (Homo sapiens (Human), UniProt P42336); assay: Enzymatic PI3K alpha isoform inhibition (lipid kinase, Kinase-Glo luminescence); format: biochemical; conditions: enzymatic assay
PI3K delta = PI3K delta (Homo sapiens (Human), UniProt O00329); assay: Enzymatic PI3K delta isoform inhibition (lipid kinase, Kinase-Glo luminescence); format: biochemical
Chain of PI3K delta (O00329 other isoform, or with tags, fused parts or gaps linker GGGGGG): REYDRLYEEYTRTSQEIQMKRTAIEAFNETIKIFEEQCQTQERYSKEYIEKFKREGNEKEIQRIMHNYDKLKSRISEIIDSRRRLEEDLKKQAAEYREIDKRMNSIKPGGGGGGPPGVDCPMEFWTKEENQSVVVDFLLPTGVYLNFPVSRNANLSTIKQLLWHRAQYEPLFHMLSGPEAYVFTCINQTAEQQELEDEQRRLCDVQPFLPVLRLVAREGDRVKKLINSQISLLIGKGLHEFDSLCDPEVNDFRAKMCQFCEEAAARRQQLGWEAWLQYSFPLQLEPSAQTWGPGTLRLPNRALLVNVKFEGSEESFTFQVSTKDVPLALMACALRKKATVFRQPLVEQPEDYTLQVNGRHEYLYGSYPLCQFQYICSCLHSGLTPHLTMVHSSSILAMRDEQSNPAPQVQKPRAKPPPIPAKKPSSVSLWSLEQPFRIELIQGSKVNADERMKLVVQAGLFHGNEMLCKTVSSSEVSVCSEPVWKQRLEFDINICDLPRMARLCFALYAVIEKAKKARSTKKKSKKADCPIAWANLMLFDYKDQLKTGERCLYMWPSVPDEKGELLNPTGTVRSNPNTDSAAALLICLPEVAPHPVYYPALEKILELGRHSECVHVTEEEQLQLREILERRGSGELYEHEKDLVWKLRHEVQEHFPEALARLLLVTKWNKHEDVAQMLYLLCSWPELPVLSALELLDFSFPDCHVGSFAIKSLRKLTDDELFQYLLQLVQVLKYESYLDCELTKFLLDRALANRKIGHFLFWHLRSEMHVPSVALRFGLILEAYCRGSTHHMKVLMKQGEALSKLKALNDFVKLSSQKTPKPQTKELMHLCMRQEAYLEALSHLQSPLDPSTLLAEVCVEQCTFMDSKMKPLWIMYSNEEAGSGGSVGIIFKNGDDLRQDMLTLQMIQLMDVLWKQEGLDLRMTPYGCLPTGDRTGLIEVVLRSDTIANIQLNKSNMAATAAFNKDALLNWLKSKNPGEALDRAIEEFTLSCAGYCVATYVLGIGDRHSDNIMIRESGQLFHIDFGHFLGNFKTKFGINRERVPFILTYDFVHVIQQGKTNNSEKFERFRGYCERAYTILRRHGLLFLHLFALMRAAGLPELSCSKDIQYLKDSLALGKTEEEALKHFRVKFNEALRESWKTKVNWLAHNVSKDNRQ

Chain of PI3K alpha (P42336 other isoform, or with tags, fused parts or gaps): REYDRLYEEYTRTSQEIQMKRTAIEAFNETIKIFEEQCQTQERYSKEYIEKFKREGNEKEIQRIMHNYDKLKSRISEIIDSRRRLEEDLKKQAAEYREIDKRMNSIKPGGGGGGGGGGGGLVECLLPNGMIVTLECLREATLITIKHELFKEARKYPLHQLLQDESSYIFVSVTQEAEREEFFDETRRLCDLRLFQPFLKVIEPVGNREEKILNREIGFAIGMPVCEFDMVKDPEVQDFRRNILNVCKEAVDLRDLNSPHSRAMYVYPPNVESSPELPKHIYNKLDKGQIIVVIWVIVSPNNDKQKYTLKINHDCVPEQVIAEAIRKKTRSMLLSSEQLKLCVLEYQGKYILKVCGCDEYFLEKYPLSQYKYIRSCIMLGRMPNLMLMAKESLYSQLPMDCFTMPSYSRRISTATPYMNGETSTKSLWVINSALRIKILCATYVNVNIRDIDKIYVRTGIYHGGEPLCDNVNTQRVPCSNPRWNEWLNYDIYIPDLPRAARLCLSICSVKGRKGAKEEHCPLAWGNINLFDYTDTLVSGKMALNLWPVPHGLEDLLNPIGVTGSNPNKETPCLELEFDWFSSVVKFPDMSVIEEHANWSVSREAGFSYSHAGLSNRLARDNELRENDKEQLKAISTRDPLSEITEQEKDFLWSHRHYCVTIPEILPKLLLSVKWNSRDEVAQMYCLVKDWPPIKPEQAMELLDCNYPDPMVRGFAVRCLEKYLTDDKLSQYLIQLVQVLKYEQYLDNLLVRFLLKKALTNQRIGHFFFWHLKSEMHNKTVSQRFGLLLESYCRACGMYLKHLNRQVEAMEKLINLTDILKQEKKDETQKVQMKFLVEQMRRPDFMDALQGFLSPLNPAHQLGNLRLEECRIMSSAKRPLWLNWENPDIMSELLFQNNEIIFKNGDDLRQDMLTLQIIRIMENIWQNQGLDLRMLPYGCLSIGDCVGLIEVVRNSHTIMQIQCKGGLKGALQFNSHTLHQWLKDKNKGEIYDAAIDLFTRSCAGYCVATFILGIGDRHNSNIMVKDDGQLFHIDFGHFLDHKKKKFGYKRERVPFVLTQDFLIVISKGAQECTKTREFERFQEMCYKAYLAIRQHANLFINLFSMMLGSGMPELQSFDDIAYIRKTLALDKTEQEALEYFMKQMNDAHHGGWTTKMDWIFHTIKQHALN

IC50 (PI3K alpha) | IC50 (PI3K delta; enzymatic assay) | Structure (SMILES) | IC50 (PI3K delta)
661 nM | 5 nM | COc1ncc(N2CCc3ncnc(O[C@H]4CCN(C(=O)c5cscn5)C4)c3C2)cc1C(F)(F)F [Example 55, {(S)-3-[6-(6-Methoxy-5-trifluoromethyl-pyridin-3-yl)-5,6,7,8-tetrahydro-pyrido[4,3-d]pyrimidin-4-yloxy]-pyrrolidin-1-yl}-thiazol-4-yl-methanone] | 
860 nM | 13 nM | COc1ncc(N2CCc3ncnc(O[C@H]4CCN(C(=O)C5CCOCC5)C4)c3C2)cc1Cl [Example 56, {(S)-3-[6-(5-Chloro-6-methoxy-pyridin-3-yl)-5,6,7,8-tetrahydro-pyrido[4,3-d]pyrimidin-4-yloxy]-pyrrolidin-1-yl}-(tetrahydro-pyran-4-yl)-methanone] | 
9100 nM | 28 nM | COc1ncc(N2CCc3ncnc(O[C@H]4CCN(C(=O)C5CCOCC5)C4)c3C2)cn1 [Example 59, {(S)-3-[6-(2-Methoxy-pyrimidin-5-yl)-5,6,7,8-tetrahydro-pyrido[4,3-d]pyrimidin-4-yloxy]-pyrrolidin-1-yl}-(tetrahydro-pyran-4-yl)-methanone] | 
3330 nM | 45 nM | O=C(C1CCOCC1)N1CC[C@H](Oc2ncnc3c2CN(c2cnc4ccccc4c2)CC3)C1 [Example 60, [(S)-3-(6-Quinolin-3-yl-5,6,7,8-tetrahydro-pyrido[4,3-d]pyrimidin-4-yloxy)-pyrrolidin-1-yl]-(tetrahydro-pyran-4-yl)-methanone] | 
489 nM | 23 nM | COc1ncc(N2CCc3ncnc(O[C@H]4CCN(C(=O)CC(C)(C)C)C4)c3C2)cc1C(F)(F)F [Example 62, 1-{(S)-3-[6-(6-Methoxy-5-trifluoromethyl-pyridin-3-yl)-5,6,7,8-tetrahydro-pyrido[4,3-d]pyrimidin-4-yloxy]-pyrrolidin-1-yl}-3,3-dimethyl-butan-1-one] | 
791 nM | 51 nM | CCC(=O)N1CC[C@H](Oc2ncnc3c2CN(c2cnc(OC)c(C(F)(F)F)c2)CC3)C1 [Example 63, 1-{(S)-3-[6-(6-Methoxy-5-trifluoromethyl-pyridin-3-yl)-5,6,7,8-tetrahydro-pyrido[4,3-d]pyrimidin-4-yloxy]-pyrrolidin-1-yl}-propan-1-one] | 
2330 nM | 32 nM | CCC(=O)N1CC[C@H](Oc2ncnc3c2CN(c2cnc(OC)c(C#N)c2)CC3)C1 [Example 64, 2-Methoxy-5-[4-((S)-1-propionyl-pyrrolidin-3-yloxy)-7,8-dihydro-5H-pyrido[4,3-d]pyrimidin-6-yl]-nicotinonitrile] | 
56 nM | 3 nM | COc1ncc(N2CCc3ncnc(N[C@H]4CCN(C(=O)C5CCOCC5)C4)c3C2)cc1C#N [Example 69, 2-Methoxy-5-{4-[(S)-1-(tetrahydro-pyran-4-carbonyl)-pyrrolidin-3-ylamino]-7,8-dihydro-5H-pyrido[4,3-d]pyrimidin-6-yl}-nicotinonitrile] | 
93 nM | 4 nM | COc1ncc(N2CCc3ncnc(N[C@H]4CCN(C(=O)c5cnco5)C4)c3C2)cc1C(F)(F)F [Example 72, {(S)-3-[6-(6-Methoxy-5-trifluoromethyl-pyridin-3-yl)-5,6,7,8-tetrahydro-pyrido[4,3-d]pyrimidin-4-ylamino]-pyrrolidin-1-yl}-oxazol-5-yl-methanone] | 
1330 nM | 20 nM | COc1ncc(N2CCc3ncnc(O[C@H]4CCN(C(=O)N5CCOCC5)C4)c3C2)cc1C(F)(F)F [Example 86, -{(S)-3-[6-(6-Methoxy-5-trifluoromethyl-pyridin-3-yl)-5,6,7,8-tetrahydro-pyrido[4,3-d]pyrimidin-4-yloxy]-pyrrolidin-1-yl}-morpholin-4-yl-methanone] | 
924 nM | 11 nM | COc1ncc(N2CCc3ncnc(O[C@H]4CCN(C(=O)c5cocn5)C4)c3C2)cc1C(F)(F)F [Example 91, {(S)-3-[6-(6-methoxy-5-trifluoromethyl-pyridin-3-yl)-5,6,7,8-tetrahydro-pyrido[4,3-d]pyrimidin-4-yloxy]-pyrrolidin-1-yl}-oxazol-4-yl-methanone] | 
2540 nM | 9 nM | COc1ncc(N2CCc3ncnc(O[C@H]4CCN(C(=O)C5CCN(C(C)=O)CC5)C4)c3C2)cc1C(F)(F)F [Example 92, 1-(4-{(S)-3-[6-(6-Methoxy-5-trifluoromethyl-pyridin-3-yl)-5,6,7,8-tetrahydro-pyrido[4,3-d]pyrimidin-4-yloxy]-pyrrolidine-1-carbonyl}-piperidin-1-yl)-ethanone] | 

The remaining lines, values behind:

Structure (SMILES) | IC50 (PI3K alpha) | IC50 (PI3K delta; enzymatic assay) | IC50 (PI3K delta)
Nc1ncc(N2CCc3ncnc(O[C@H]4CCN(C(=O)C5CCOCC5)C4)c3C2)cc1C(F)(F)F [Example 57, {(S)-3-[6-(6-Amino-5-trifluoromethyl-pyridin-3-yl)-5,6,7,8-tetrahydro-pyrido[4,3-d]pyrimidin-4-yloxy]-pyrrolidin-1-yl}-(tetrahydro-pyran-4-yl)-methanone] | 590 nM | 25 nM | 
COc1ncc(N2CCc3ncnc(OC4CN(C(=O)C5CCOCC5)C4)c3C2)cc1C(F)(F)F [Example 58, {3-[6-(6-Methoxy-5-trifluoromethyl-pyridin-3-yl)-5,6,7,8-tetrahydro-pyrido[4,3-d]pyrimidin-4-yloxy]-azetidin-1-yl}-(tetrahydro-pyran-4-yl)-methanone] | 3060 nM | 30 nM | 
COc1ncc(N2CCc3ncnc(O[C@H]4CCN(C(=O)C5CCOCC5)C4)c3C2)cc1C(F)(F)F [Example 61, {(S)-3-[6-(6-Methoxy-5-trifluoromethyl-pyridin-3-yl)-5,6,7,8-tetrahydro-pyrido[4,3-d]pyrimidin-4-yloxy]-pyrrolidin-1-yl}-(tetrahydro-pyran-4-yl)-methanone] | 589 nM | 12 nM | 
COc1ncc(N2CCc3ncnc(O[C@H]4CCN(c5ncccn5)C4)c3C2)cc1C(F)(F)F [Example 66, 6-(6-Methoxy-5-trifluoromethyl-pyridin-3-yl)-4-((S)-1-pyrimidin-2-yl-pyrrolidin-3-yloxy)-5,6,7,8-tetrahydro-pyrido[4,3-d]pyrimidine] | 1280 nM |  | 14 nM
COc1ncc(N2CCc3ncnc(N[C@H]4CCN(C(=O)C5CCN(C(C)=O)CC5)C4)c3C2)cc1C(F)(F)F [Example 70, 1-(4-{(S)-3-[6-(6-methoxy-5-trifluoromethyl-pyridin-3-yl)-5,6,7,8-tetrahydro-pyrido[4,3-d]pyrimidin-4-ylamino]-pyrrolidine-1-carbonyl}-piperidin-1-yl)-ethanone] | 121 nM | 6 nM | 
COc1ncc(N2CCc3ncnc(N[C@H]4CCN(C(=O)c5cn(C)cn5)C4)c3C2)cc1C [Example 77, -{(S)-3-[6-(6-Methoxy-5-methyl-pyridin-3-yl)-5,6,7,8-tetrahydro-pyrido[4,3-d]pyrimidin-4-ylamino]-pyrrolidin-1-yl}-(1-methyl-1H-imidazol-4-yl)-methanone] | 1290 nM | 44 nM | 
COc1ncc(N2CCc3ncnc(N[C@H]4CCN(C(=O)c5cnco5)C4)c3C2)cc1C [Example 78, {(S)-3-[6-(6-Methoxy-5-methyl-pyridin-3-yl)-5,6,7,8-tetrahydro-pyrido[4,3-d]pyrimidin-4-ylamino]-pyrrolidin-1-yl}-oxazol-5-yl-methanone] | 384 nM | 12 nM | 
COc1ncc(N2CCc3ncnc(N[C@H]4CCN(C(=O)c5cocn5)C4)c3C2)cc1C [Example 79, {(S)-3-[6-(6-Methoxy-5-methyl-pyridin-3-yl)-5,6,7,8-tetrahydro-pyrido[4,3-d]pyrimidin-4-ylamino]-pyrrolidin-1-yl}-oxazol-4-yl-methanone] | 781 nM | 17 nM | 
COc1ncc(N2CCc3ncnc(N[C@H]4CCN(C(=O)C5CCOC(C)(C)C5)C4)c3C2)cc1C (stereo partly drawn) [Example 80, (2,2-Dimethyl-tetrahydro-pyran-4-yl)-{(S)-3-[6-(6-methoxy-5-methyl-pyridin-3-yl)-5,6,7,8-tetrahydro-pyrido[4,3-d]pyrimidin-4-ylamino]-pyrrolidin-1-yl}-methanone] | 430 nM | 16 nM | 
O=C(C1CCOCC1)N1CC[C@H](Nc2ncnc3c2CN(c2cncc(C(F)(F)F)c2)CC3)C1 [Example 84, (Tetrahydro-pyran-4-yl)-{(S)-3-{6-(5-(trifluoromethyl)pyridin-3-yl)-5,6,7,8-tetrahydropyrido[4,3-d]pyrimidin-4-ylamino)pyrrolidin-1-yl}-methanone] | 58 nM | 9 nM | 
COc1ncc(N2CCc3ncnc(O[C@H]4CCN(C(=O)N5CCC(O)CC5)C4)c3C2)cc1C(F)(F)F [Example 87, (4-Hydroxy-piperidin-1-yl)-{(S)-3-[6-(6-methoxy-5-trifluoromethyl-pyridin-3-yl)-5,6,7,8-tetrahydro-pyrido[4,3-d]pyrimidin-4-yloxy]-pyrrolidin-1-yl}-methanone] | 452 nM | 12 nM | 
COc1ncc(N2CCc3ncnc(O[C@H]4CCN(C(=O)N(C)CCO)C4)c3C2)cc1C(F)(F)F [Example 88, (S)-3-[6-(6-Methoxy-5-trifluoromethyl-pyridin-3-yl)-5,6,7,8-tetrahydro-pyrido[4,3-d]pyrimidin-4-yloxy]-pyrrolidine-1-carboxylic acid (2-hydroxy-ethyl)-methyl-amide] | 1340 nM | 34 nM | 
COc1ncc(N2CCc3ncnc(O[C@H]4CCN(C(=O)N5CCN(C(C)=O)CC5)C4)c3C2)cc1C(F)(F)F [Example 89, 1-(4-{(S)-3-[6-(6-methoxy-5-trifluoromethyl-pyridin-3-yl)-5,6,7,8-tetrahydro-pyrido[4,3-d]pyrimidin-4-yloxy]-pyrrolidine-1-carbonyl}-piperazin-1-yl)-ethanone] | 1190 nM | 29 nM | 
COc1ncc(N2CCc3ncnc(O[C@H]4CCN(C(=O)c5cncn5C)C4)c3C2)cc1C(F)(F)F [Example 93, {(S)-3-[6-(6-Methoxy-5-trifluoromethyl-pyridin-3-yl)-5,6,7,8-tetrahydro-pyrido[4,3-d]pyrimidin-4-yloxy]-pyrrolidin-1-yl}-(3-methyl-3H-imidazol-4-yl)-methanone] | 872 nM | 24 nM | 
